Assay results taken from patent USRE38132E1, “Phenylpyrrolidines, phenylimidazolidines,3-phenyl-1,3-oxizolidines and 3-phenyl-1,3-thiazolidines and their use in the treatment of inflammatory disease” (Boehringer Ingelheim Pharmaceuticals, Inc., priority 1997, dated 2003).
Read-outs that look alike come from different tables or passages of the source.

Columns and labels:
[1] = target: T1, interaction of ICAM-1 with the Leukointegrin CD18/CD11a (LFA-1) (Homo sapiens, UniProt P05107+P20701); experiment: Assay to determine inhibition of LFA-1 binding to ICAM-1 (immunopurified LFA-1 on plate-bound sICAM-1, ELISA readout); conditions: values marked e approximated from incomplete dose-response curve
T1 construct: endogenous in cells; sICAM-1: made in house, secreted from transfected CHO DUX cells

[2] = system: cell bound form of LFA-1 (CD18, CD11a) with ICAM-1, SKW3 cells; experiment: Inhibition of SKW3 cell binding to ICAM-1 (PMA-stimulated); format: cell-based, human; conditions: Homo sapiens, read-out: Assay to Detect SKW3 Cells Binding to ICAM IC50
Procedure, shortened: (§1)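 Compound-treated, PMA-stimulated human T-cell line SKW3 (50 μg/mL PMA final) allowed to adhere for 2 h at 37° C to wells coated with sICAM-1 at 40 μg/mL or fibronectin at 100 μg/mL. After gentle RPMI wash, 50% inhibition concentration or range reported in μM.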

[3] = system: cell bound fibronectin receptor (VLA4) with fibronectin, SKW3 cells; experiment: Inhibition of SKW3 cell binding to fibronectin (selectivity counter-assay); format: cell-based, human
Procedure, shortened: as §1

[4] = system: LFA-1 dependent aggregation of JY cells; experiment: JY cell homotypic aggregation assay (PMA-stimulated); format: cell-based, human; conditions: Homo sapiens
Procedure, shortened: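 Homotypic aggregation of EBV-transformed JY cells, stimulated by phorbol myristate acetate ([…]), scored visually over time in compound presence at 2·10^5 cells/well in serum-supplemented RPMI 1640. Result given as μM concentration or range inhibiting binding by 50%.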

[5] = system: allogeneic cell transplant response, popliteal lymph node; experiment: In vivo allogeneic cell transplant model (popliteal lymph node weight); conditions: Mus musculus, po; mice, per os, dose at which 50% inhibition is observed; read-out: Allogeneic Cell Transplantation Assay ACT ED50
Excerpt: In vivo: Allogeneic Cell Transplant Model Purpose of Assay: The ability of cells to recognize other cells from self or from another genetically different individual (non-self) is an important property in maintaining the integrity of tissue and organ structure. The allogeneic cell transplant response is an important model for studies of transplant rejection and immunocompetence. This T-cell-mediated immune response can be induced in adult mice by the injection of lymphocytes from a histoincompatible mouse strain into the footpad . This response is characterized by T-cell proliferation which is limited to the popliteal lymph node that receives drainage from the injected footpad area. No in vitro system can completely duplicate this in vivo response. Thus, this animal model can be used to assess the ability of a test compound to suppress transplant rejection. Description of Assay Protocol: Experiments are conducted using male or female mice (20-26 grams). Any histoincompatible mouse strains suffice for donor and recipient populations. Typically DBA mice are used as donors and […] mice are used as recipients. A minimum of 1 week stabilization and conditioning period is required before use during which time the animals are maintained in accordance with the Animal Resource Center S.O.P. Each study utilizes 36 recipient mice divided into groups of 6. The tests last approximately four days. Donor mice are sacrificed by CO2 asphyxiation and spleens are removed and made into a cell suspension. The cells (1.0·10^7/metatarsal in 0.05 mL) are injected intra dermal (according to standard protocol) into the dorsal metatarsal skin of recipient mice. Four days later, the animals are sacrificed by CO2 asphyxiation and the popliteal nodes are removed and weighed. Groups of mice receiving putative immunosuppressive agents are dosed subcutaneously, intraperitoneally or orally one hour prior to cell injection and daily thereafter according to standard protocol. Student's T-test was used to determine significant differences between popliteal lymph nodes of groups of untreated mice and those mice treated with putative immunosuppressive agents (see: Kroczek, R. A.; Black, C. D. V.; Barbet, […]. Immunology, 1987, 139, 3597). Data are reported as the dose at which 50% inhibition is observed and the manner in which the compound was administered. In Table 23, the following legends are applicable: ^and=not determined. ^bpercent inhibition at 160 μg/mL. ^cno inhibition observed up to highest dose. Exact quantification not always possible due to intrinsic toxicity of compound (see MTT result). ^[…] inhibition (concentration in μM ). ^eapproximated from incomplete dose-response curve. ^fnot determined; compound is a synthesis intermediate.

[6] = system: SKW3 cells

T1 sequence (P20701 26-1170): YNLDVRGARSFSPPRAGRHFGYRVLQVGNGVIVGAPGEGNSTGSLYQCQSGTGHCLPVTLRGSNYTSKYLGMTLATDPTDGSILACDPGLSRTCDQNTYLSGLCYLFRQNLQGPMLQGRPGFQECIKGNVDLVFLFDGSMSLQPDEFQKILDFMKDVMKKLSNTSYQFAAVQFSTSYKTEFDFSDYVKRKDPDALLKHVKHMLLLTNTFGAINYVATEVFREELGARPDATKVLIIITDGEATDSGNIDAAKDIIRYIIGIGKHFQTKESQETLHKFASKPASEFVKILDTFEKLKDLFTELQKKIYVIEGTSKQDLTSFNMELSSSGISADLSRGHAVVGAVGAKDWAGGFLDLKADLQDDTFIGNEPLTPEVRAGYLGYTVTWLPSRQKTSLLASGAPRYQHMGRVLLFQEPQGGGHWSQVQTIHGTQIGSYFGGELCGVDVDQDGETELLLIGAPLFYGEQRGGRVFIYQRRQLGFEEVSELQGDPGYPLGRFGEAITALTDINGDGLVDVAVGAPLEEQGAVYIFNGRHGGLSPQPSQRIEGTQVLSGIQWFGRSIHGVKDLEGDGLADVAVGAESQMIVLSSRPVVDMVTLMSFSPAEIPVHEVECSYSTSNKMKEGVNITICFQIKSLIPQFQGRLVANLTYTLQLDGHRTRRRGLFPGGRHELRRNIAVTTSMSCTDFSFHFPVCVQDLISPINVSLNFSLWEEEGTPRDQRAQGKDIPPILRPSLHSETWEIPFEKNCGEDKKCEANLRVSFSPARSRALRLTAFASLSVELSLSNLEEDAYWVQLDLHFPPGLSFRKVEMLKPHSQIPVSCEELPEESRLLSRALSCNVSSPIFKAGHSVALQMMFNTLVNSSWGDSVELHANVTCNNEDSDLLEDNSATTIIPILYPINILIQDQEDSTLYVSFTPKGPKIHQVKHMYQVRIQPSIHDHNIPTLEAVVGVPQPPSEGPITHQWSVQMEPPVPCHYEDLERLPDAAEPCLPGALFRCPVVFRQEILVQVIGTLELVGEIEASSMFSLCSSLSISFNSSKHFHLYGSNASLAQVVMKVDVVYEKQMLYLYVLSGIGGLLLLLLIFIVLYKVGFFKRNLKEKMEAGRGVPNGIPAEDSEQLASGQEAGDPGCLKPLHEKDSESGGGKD
T1 sequence (P05107 23-769): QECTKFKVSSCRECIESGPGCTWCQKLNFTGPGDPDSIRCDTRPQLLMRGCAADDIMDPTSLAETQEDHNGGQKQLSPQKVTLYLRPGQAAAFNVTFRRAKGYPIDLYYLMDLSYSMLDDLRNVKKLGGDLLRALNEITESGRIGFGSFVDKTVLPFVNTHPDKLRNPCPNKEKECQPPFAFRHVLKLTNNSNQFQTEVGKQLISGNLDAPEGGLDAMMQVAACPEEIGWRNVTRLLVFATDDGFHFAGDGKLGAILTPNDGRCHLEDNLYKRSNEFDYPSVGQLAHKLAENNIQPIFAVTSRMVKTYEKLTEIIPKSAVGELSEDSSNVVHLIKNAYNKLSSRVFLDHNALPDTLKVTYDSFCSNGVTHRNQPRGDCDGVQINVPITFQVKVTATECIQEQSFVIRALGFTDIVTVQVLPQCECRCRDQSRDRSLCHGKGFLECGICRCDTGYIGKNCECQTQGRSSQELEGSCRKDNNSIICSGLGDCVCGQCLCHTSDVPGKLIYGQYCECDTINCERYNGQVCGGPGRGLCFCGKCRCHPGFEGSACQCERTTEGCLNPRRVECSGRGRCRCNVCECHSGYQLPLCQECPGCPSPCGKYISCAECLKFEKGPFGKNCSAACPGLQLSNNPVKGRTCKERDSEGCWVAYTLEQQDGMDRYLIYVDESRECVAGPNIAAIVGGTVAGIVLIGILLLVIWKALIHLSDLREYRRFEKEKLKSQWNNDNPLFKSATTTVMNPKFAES

melting point	SMILES	Kd [1]	IC50 ([2]; SKW3, values marked c: no inhibition observed up to highest dose)	Assay to Detect SKW3 Cells Binding to FIBRONECTIN IC50 ([3]; values marked c: no inhibition observed up to highest dose)	IC50 [4]	ED50 [5]	Cellular Toxicity Assay MTT LD50 [6]	IC50 ([2]; SKW3)	Assay to Detect SKW3 Cells Binding to FIBRONECTIN IC50 ([3]; No inh = no inhibition observed up to highest dose, exact quantification not always possible due to intrinsic toxicity)
	CC(=O)N1C(=O)N(c2cc(Cl)cc(Cl)c2)C(=O)[C@@]1(C)Cc1ccc(-c2cccnc2)cc1 [Example 125]	110 nM	1000 to 3000 nM	No inh^c	400 nM	~90 mg/kg	>400 µM		
	CN1C(=O)N(c2cc(Cl)cc(Cl)c2)C(=O)[C@@]1(C)Cc1ccc(Br)cc1 [Example 271]				100 nM	~20 mg/kg	250 to 500 µM	3000 nM	No inh^c
150 to 151 °C	CC1(Cc2ccc(Cl)c(Cl)c2)NC(=O)N(c2cc(Cl)cc(Cl)c2)C1=O (stereo not shown) [Example 55]	200 nM							
